Data as given in US20150322051A1, “Macrocyclic picolinamides as fungicides” (Dow AgroSciences LLC, priority 2014, published 2015).
Like-named read-outs stand apart in the source and are kept apart here.

What was measured:
[1] = system: Puccinia triticina; synonym: Puccinia recondita f. sp. tritici (PUCCRT); test: Wheat brown rust (PUCCRT) whole-plant fungicidal test; assay type: in vivo; conditions: topical; for pest or weed control at 100 ppm: high volume application; for pest or weed control at 121.5 g/ha: low volume (track spray) application, 121.5 g/H
Experimental: All fungicides were evaluated using the aforementioned method for their activity vs. all target diseases, unless stated otherwise. Wheat leaf blotch and brown rust activity were also evaluated using track spray applications, in which case the fungicides were formulated as EC formulations, containing 0.1% Trycol 5941 in the spray solutions. Wheat plants (variety Yuma) were grown from seed in a greenhouse in 50% mineral soil/50% soil-less Metro mix until the first leaf was fully emerged, with 7-10 seedlings per pot. These plants were inoculated with an aqueous spore suspension of Septoria tritici either prior to or after fungicide treatments. After inoculation the plants were kept in 100% relative humidity (one day in a dark dew chamber followed by two to three days in a lighted dew chamber at 20° C.) to permit spores to germinate and infect the leaf. The plants were then transferred to a greenhouse set at 20° C. for disease to develop. When disease symptoms were fully expressed on the 1st leaves of untreated plants, infection levels were assessed on a scale of 0 to 100 percent disease severity. Percent disease control was calculated using the ratio of disease severity on treated plants relative to untreated plants. Wheat plants (variety Yuma) were grown from seed in a greenhouse in 50% mineral soil/50% soil-less Metro mix until the first leaf was fully emerged, with 7-10 seedlings per pot. These plants were inoculated with an aqueous spore suspension of Puccinia triticina either prior to or after fungicide treatments. […] The plants were then transferred to a greenhouse set at 24° C. for disease to develop. Fungicide formulation, application and disease assessment followed the procedures as described in the Example A.

[2] = system: Mycosphaerella graminicola; anamorph: Septoria tritici (SEPTTR); test: Leaf blotch of wheat (SEPTTR) whole-plant fungicidal test; assay type: in vivo; conditions: Zymoseptoria tritici, topical; for pest or weed control at 100 ppm: high volume application; for pest or weed control at 121.5 g/ha: low volume (track spray) application, 121.5 g/H
Experimental: All fungicides were evaluated using the aforementioned method for their activity vs. all target diseases, unless stated otherwise. Wheat leaf blotch and brown rust activity were also evaluated using track spray applications, in which case the fungicides were formulated as EC formulations, containing 0.1% Trycol 5941 in the spray solutions. Wheat plants (variety Yuma) were grown from seed in a greenhouse in 50% mineral soil/50% soil-less Metro mix until the first leaf was fully emerged, with 7-10 seedlings per pot. These plants were inoculated with an aqueous spore suspension of Septoria tritici either prior to or after fungicide treatments. After inoculation the plants were kept in 100% relative humidity (one day in a dark dew chamber followed by two to three days in a lighted dew chamber at 20° C.) to permit spores to germinate and infect the leaf. The plants were then transferred to a greenhouse set at 20° C. for disease to develop. When disease symptoms were fully expressed on the 1st leaves of untreated plants, infection levels were assessed on a scale of 0 to 100 percent disease severity. Percent disease control was calculated using the ratio of disease severity on treated plants relative to untreated plants.

[3] = 24 h, 1 Day Protectant, read-out: High Volume activity at 100 ppm PUCCRT 1DP (% disease control rating)
[4] = 24 h, 1 Day Protectant, read-out: Low Volume activity at 121.5 g/H PUCCRT 1DP (% disease control rating)
[5] = 72 h, 3 Day Curative, read-out: High Volume activity at 100 ppm PUCCRT 3DC (% disease control rating)
[6] = 72 h, 3 Day Curative, read-out: Low Volume activity at 121.5 g/H PUCCRT 3DC (% disease control rating)
[7] = 24 h, 1 Day Protectant, read-out: High Volume activity at 100 ppm SEPTTR 1DP (% disease control rating)
[8] = 24 h, 1 Day Protectant, read-out: Low Volume activity at 121.5 g/H SEPTTR 1DP (% disease control rating)
[9] = 72 h, 3 Day Curative, read-out: High Volume activity at 100 ppm SEPTTR 3DC (% disease control rating)
[10] = 72 h, 3 Day Curative, read-out: Low Volume activity at 121.5 g/H SEPTTR 3DC (% disease control rating)

Row | SMILES | pest or weed control at 100 ppm [1, 3] [%] | pest or weed control at 121.5 g/ha [1, 4] [%] | pest or weed control at 100 ppm [1, 5] [%] | pest or weed control at 121.5 g/ha [1, 6] [%] | pest or weed control at 100 ppm [2, 7] [%] | pest or weed control at 121.5 g/ha [2, 8] [%] | pest or weed control at 100 ppm [2, 9] [%] | pest or weed control at 121.5 g/ha [2, 10] [%]
1 | CCCC[C@@H]1[C@@H](Cc2ccccc2)CCC[C@H](NC(=O)c2nccc(OC)c2OCOC(C)=O)C(=O)O[C@H]1C [Compound 2, ((2-(((3S,7R,8R,9S)-7-benzyl-8-butyl-9-methyl-2-oxooxonan-3-yl)carbamoyl)-4-methoxypyridin-3-yl)oxy)methyl acetate] | > 70 | > 70 | > 70 | < 70 | > 70 | > 70 | > 70 | > 70
2 | COc1ccnc(C(=O)N[C@H]2CCC[C@H](Cc3ccccc3)[C@@H](Cc3ccccc3)[C@H](C)OC2=O)c1OCOC(C)=O [Compound 6] |  | > 70 |  | > 70 |  | > 70 |  | > 70
3 | CCOCC(=O)OCOc1c(OC)ccnc1C(=O)N[C@H]1CCC[C@H](Cc2ccccc2)[C@@H](CCC(C)C)[C@H](C)OC1=O [Compound 51] |  | > 70 |  | < 70 |  | > 70 |  | > 70
4 | COc1ccnc(C(=O)N[C@H]2CCC[C@H](Cc3ccc(Cl)cc3)[C@@H](CC(C)C)[C@H](C)OC2=O)c1OC(C)=O [Compound 13] |  | > 70 |  | < 70 |  | > 70 |  | > 70
5 | COc1ccnc(C(=O)N[C@H]2CCC[C@H](Cc3ccccc3)[C@@H](CCC(C)C)[C@H](C)OC2=O)c1OC(=O)C(C)C [Compound 49] |  | < 70 |  | < 70 |  | > 70 |  | > 70
6 | COc1ccnc(C(=O)N[C@H]2CCC[C@H](CCC(C)C)[C@@H](C3CCCC3)[C@H](C)OC2=O)c1OC(C)=O [Compound 43] |  | > 70 |  | < 70 |  | > 70 |  | > 70
7 | COc1ccnc(C(=O)N[C@H]2CCC[C@H](CCC(C)C)[C@@H](C3CCCC3)[C@H](C)OC2=O)c1OCOC(C)=O [Compound 42] |  | > 70 |  | < 70 |  | > 70 |  | > 70
8 | CCOCC(=O)OCOc1c(OC)ccnc1C(=O)N[C@H]1CCC[C@H](Cc2ccc(Cl)cc2)[C@@H](C2CCCC2)[C@H](C)OC1=O [Compound 31] |  | > 70 |  | < 70 |  | > 70 |  | > 70
9 | CCOCC(=O)OCOc1c(OC)ccnc1C(=O)N[C@H]1CCC[C@H](Cc2ccccc2)[C@@H](CCc2ccccc2)[C@H](C)OC1=O [Compound 16] |  | > 70 |  | > 70 |  | > 70 |  | > 70
10 | COc1ccnc(C(=O)N[C@H]2CCC[C@H](Cc3ccc(C(F)(F)F)cc3)[C@@H](Cc3ccc(F)cc3)[C@H](C)OC2=O)c1OCOC(C)=O [Compound 39] |  | < 70 |  | < 70 |  | > 70 |  | > 70
11 | COc1ccnc(C(=O)N[C@H]2CCC[C@H](CCCc3ccccc3)[C@@H](CCc3ccccc3)[C@H](C)OC2=O)c1OC(C)=O [Compound 33] |  | < 70 |  | < 70 |  | > 70 |  | < 70
12 | CCOCC(=O)OCOc1c(OC)ccnc1C(=O)N[C@H]1CCC[C@H](Cc2ccc(C(F)(F)F)cc2)[C@@H](Cc2ccc(OC(F)(F)F)cc2)[C@H](C)OC1=O [Compound 66] |  | < 70 |  | < 70 |  | < 70 |  | < 70
13 | COc1ccnc(C(=O)N[C@H]2CCC[C@H](Cc3ccccc3)[C@@H](Cc3ccccc3)[C@H](C)OC2=O)c1OCOC(=O)C(C)C [Compound 7, ((2-(((3S,7R,8R,9S)-7,8-dibenzyl-9-methyl-2-oxooxonan-3-yl)carbamoyl)-4-methoxypyridin-3-yl)oxy)methyl isobutyrate] |  | > 70 |  | > 70 |  | > 70 |  | > 70
14 | COc1ccnc(C(=O)N[C@H]2CCC[C@H](Cc3ccccc3)[C@@H](Cc3ccc(F)cc3)[C@H](C)OC2=O)c1OC(C)=O [Compound 62] |  | > 70 |  | < 70 |  | > 70 |  | > 70
15 | COc1ccnc(C(=O)N[C@H]2CCC[C@H](Cc3ccccc3)[C@@H](Cc3ccc(OC(F)(F)F)cc3)[C@H](C)OC2=O)c1O [Compound 97] | > 70 |  | < 70 |  | > 70 |  | < 70 | 
16 | COc1ccnc(C(=O)N[C@H]2CCC[C@H](CC3CC3)[C@@H](Cc3ccccc3)[C@H](C)OC2=O)c1OC(C)=O [Compound 60] |  | > 70 |  | > 70 |  | > 70 |  | > 70
17 | CCCC[C@@H]1[C@@H](Cc2ccc(C(F)(F)F)cc2)CCC[C@H](NC(=O)c2nccc(OC)c2O)C(=O)O[C@H]1C [Compound 72] | > 70 |  | < 70 |  | > 70 |  | < 70 | 
18 | COc1ccnc(C(=O)N[C@H]2CCC[C@H](Cc3ccc(C(F)(F)F)cc3)[C@@H](Cc3ccc(OC(F)(F)F)cc3)[C@H](C)OC2=O)c1OCOC(C)=O [Compound 65] |  | < 70 |  | < 70 |  | < 70 |  | < 70
19 | COc1ccnc(C(=O)N[C@H]2CCC[C@H](Cc3ccccc3)[C@@H](CCC(C)C)[C@H](C)OC2=O)c1OC(C)=O [Compound 45] |  | > 70 |  | < 70 |  | > 70 |  | > 70
20 | COc1ccnc(C(=O)N[C@H]2CCC[C@H](Cc3ccc(C(F)(F)F)cc3)[C@@H](Cc3ccccc3)[C@H](C)OC2=O)c1O [Compound 81] | > 70 |  | < 70 |  | > 70 |  | < 70 | 
21 | COc1ccnc(C(=O)N[C@H]2CCC[C@H](CCC(C)C)[C@@H](C3CCCC3)[C@H](C)OC2=O)c1OCOC(=O)C(C)C [Compound 44] |  | > 70 |  | < 70 |  | > 70 |  | > 70
22 | COc1ccnc(C(=O)N[C@H]2CCC[C@H](Cc3ccccc3)[C@@H](C3CCCC3)[C@H](C)OC2=O)c1OCOC(C)=O [Compound 10] |  | > 70 |  | > 70 |  | > 70 |  | > 70
23 | COc1ccnc(C(=O)N[C@H]2CCC[C@H](Cc3ccccc3)[C@@H](CCC(C)C)[C@H](C)OC2=O)c1O [Compound 88] | > 70 |  | < 70 |  | < 70 |  | > 70 | 
